In US9233971B2, “Lipomacrocycles and uses thereof” (priority 2010, dated 2016):

Assays:
[1] = tested on: SSB mRNA in liver; assay: In vivo gene knockdown, lipid particle siRNA formulation (Example 4), SSB siRNA; details: lipid particles, dose 3.2 mg/kg intravenously, CD1 mice, liver harvested three days later, real-time RT-PCR, GAPDH reference
Method: Lipid Particle formulations were made by first mixed siRNA in an aqueous solution with DOTMA in organic solvent to produce a water-insoluble precipitate. After isolating and drying the precipitate, the precipitate was dissolved in chloroform and further mixed with other lipids as following: Each lipid particle formulation was consisting of 1 part DOTMA+siRNA complex/5 parts any lipomacrocycle compound (Table 1)/1.5 parts N 6-tetrakis (3-aminopropyl)-1,3-propanediamine cholesteryl carbamate/2.2 parts 1,2-dilinoleoyl-sn-glycero-3-phosphoethanolamine/10.08 parts cholesterol PEG-660/4.32 parts cholesterol PEG-660/0.6 parts cholesterol (weight/weight). All the components were dissolved in chloroform and mixed together. Then, the mixtures were dried overnight in Speedvac. The dried formulations were hydrated by adding in certain amount of 5% dextrose water before dosing to animals intravenously.
(§1) All procedures used in animal studies conducted were approved by the Institutional Animal Care and Use Committee (IACUC) and were consistent with local, state and federal regulations as applicable. Mice, rats, and rabbits received siRNA formulations intravenously at dose volume of 0.2 ml, 1 ml, or 10 ml, respectively. Animals were sacrificed 2 to 7 days later. Tissues were harvested and mRNA was isolated with Turbocapture kit (Qiagen) for analyzing change of gene expression with real-time RT-PCR method (SensiMix SYBR One-Step Kit, Bioline). Serum was harvested for analyzing blood chemistry.
(§2) CD1 mice were dosed with lipid particle (Table 1) or liposome (Table 2) siRNA formulation intravenousely and the different tissues were harvested three days later. The gene expression was analyzed with real-time RT-PCR method (for liver, GAPDH as reference gene; for lung and bone marrow, GAPDG and β-actin as reference genes).

[2] = tested on: SSB mRNA in liver; assay: In vivo gene knockdown, liposomal siRNA formulation (Example 3), SSB siRNA; parameters: species or system CD1 mice; details: liposomal formulation, SSB siRNA, dose 3.2 mg/kg intravenously, CD1 mice, liver harvested three days later, real-time RT-PCR, GAPDH reference
Method: (§3) Each liposome formulation was made by mixing lipids of each lipomacrocycle compound (Table 1) combined with DSPC, DMG-PEG 2K, and cholesterol at the weight ratio of 3.85:0.42:0.21:0.79 in ethanol and siRNA in water. Then 5% dextrose water was added in each formulation before dosing to mice.
as §1, §2

[3] = tested on: APOB mRNA in liver; assay: In vivo gene knockdown, liposomal siRNA formulation (Example 3), APOB siRNA; details: dose 3 mg/kg intravenously, CD1 mice, liver harvested three days later, real-time RT-PCR, GAPDH reference
Method: as §3, §1, §2

Row | Structure (SMILES) | Targeted mRNA remain in liver [1] | Targeted mRNA remain in liver [2] | Targeted mRNA remain in liver [3]
1 | CCCCCCCCCCCCCCOCC(O)CN(CCCN(CCCN(CCCN(CC(O)COCCCCCCCCCCCCCC)CC(O)COCCCCCCCCCCCCCC)CCCN(CC(O)COCCCCCCCCCCCCCC)CC(O)COCCCCCCCCCCCCCC)CCCN(CC(O)COCCCCCCCCCCCCCC)CC(O)COCCCCCCCCCCCCCC)CC(O)COCCCCCCCCCCCCCC (centres unmarked) [Compound T3C1] | 0.18 | 0.13 | –
2 | CCCCCCCCCCCCOCC(O)CN(CCCN(CCCCN(CCCN(CC(O)COCCCCCCCCCCCC)CC(O)COCCCCCCCCCCCC)CCCN(CC(O)COCCCCCCCCCCCC)CC(O)COCCCCCCCCCCCC)CCCN(CC(O)COCCCCCCCCCCCC)CC(O)COCCCCCCCCCCCC)CC(O)COCCCCCCCCCCCC (centres unmarked) [Compound T4C10] | – | – | 0.82
3 | CC(C)(C)c1ccc(C(=O)OCC(O)CN(CCCN(CCCCN(CCCN(CC(O)COC(=O)c2ccc(C(C)(C)C)cc2)CC(O)COC(=O)c2ccc(C(C)(C)C)cc2)CCCN(CC(O)COC(=O)c2ccc(C(C)(C)C)cc2)CC(O)COC(=O)c2ccc(C(C)(C)C)cc2)CCCN(CC(O)COC(=O)c2ccc(C(C)(C)C)cc2)CC(O)COC(=O)c2ccc(C(C)(C)C)cc2)CC(O)COC(=O)c2ccc(C(C)(C)C)cc2)cc1 (centres unmarked) [Compound T4C11] | – | – | 1.07
4 | CC(C)(C)C(O)(CCc1ccc(Cl)cc1)CN(CCCN(CCCCN(CCCN(CC(O)(CCc1ccc(Cl)cc1)C(C)(C)C)CC(O)(CCc1ccc(Cl)cc1)C(C)(C)C)CCCN(CC(O)(CCc1ccc(Cl)cc1)C(C)(C)C)CC(O)(CCc1ccc(Cl)cc1)C(C)(C)C)CCCN(CC(O)(CCc1ccc(Cl)cc1)C(C)(C)C)CC(O)(CCc1ccc(Cl)cc1)C(C)(C)C)CC(O)(CCc1ccc(Cl)cc1)C(C)(C)C (centres unmarked) [Compound T4C18] | – | – | 1.56
